Article PMC5908134, “Saccharomyces cerevisiae as a platform for assessing sphingolipid lipid kinase inhibitors” (PLoS ONE, 2018)
Entries after “also recorded” stand apart in the source; their conditions may differ.

How the values were obtained:
human SphK2 [1] = target: T1, human SphK2 (Homo sapiens, UniProt Q9NRA0); assay: yeast growth rescue assay, strain CBY169 expressing human SphK2; format: cell-based
T1 construct: full length (wild type hSK2); expressed in transfected cells; host or cells: Saccharomyces cerevisiae CBY169 or KYA1, plasmid pGAL-HsSPHK2
T1 sequence (Q9NRA0 1-618 isoform Q9NRA0-2): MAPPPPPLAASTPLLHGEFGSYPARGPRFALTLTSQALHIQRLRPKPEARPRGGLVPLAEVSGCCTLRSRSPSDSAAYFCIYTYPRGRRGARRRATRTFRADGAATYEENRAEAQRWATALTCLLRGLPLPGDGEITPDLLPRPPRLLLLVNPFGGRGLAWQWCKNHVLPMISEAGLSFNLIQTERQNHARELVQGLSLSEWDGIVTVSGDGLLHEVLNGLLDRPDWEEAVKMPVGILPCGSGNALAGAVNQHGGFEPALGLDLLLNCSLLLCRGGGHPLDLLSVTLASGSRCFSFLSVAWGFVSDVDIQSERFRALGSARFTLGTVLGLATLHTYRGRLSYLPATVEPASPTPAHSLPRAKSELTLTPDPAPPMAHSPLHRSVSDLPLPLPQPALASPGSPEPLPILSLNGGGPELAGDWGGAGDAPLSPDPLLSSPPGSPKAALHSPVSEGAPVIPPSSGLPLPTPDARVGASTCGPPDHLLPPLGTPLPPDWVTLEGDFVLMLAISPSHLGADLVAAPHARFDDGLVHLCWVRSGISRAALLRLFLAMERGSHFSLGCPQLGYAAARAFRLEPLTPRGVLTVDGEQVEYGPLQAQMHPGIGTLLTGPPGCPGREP
Description: (§1) The plasmids pGAL-HsSPHK1, pGAL-HsSPHK2, pGAL-MmSphk1, pGAL-MmSphk1L277M, pGAL-MmSphk2, pGAL-HsCERK and pGAL-SK2_MOD used in this study were constructed by sub-cloning DNA encoding the indicated translational open reading frames into the pYES2-FLAG-URA expression vector (provided by Dr. Cungui Mao). […] Excepting human and mouse SphK2, the DNA sequences are synthetic (from GeneWiz LLC (South Plainfield, NJ)) and were optimized for expression in S. cerevisiae.

human SphK2 [2] = target: T1, human SphK2; assay: yeast growth rescue assay, strain KYA1 (PDR5 deleted) expressing human SphK2; format: cell-based
Description: (§2) The yeast strains used in this study include JS1256 (MATa his3Δ1 leu2Δ0 met15Δ0 ura3Δ0) and CBY169 (MATα leu2-3,112 ura3-52 his4 trp1 rme1 dpl1Δ::TRP1 lcb3Δ::LEU2 lcb4Δ::kanMX lcb5Δ::kanMX) (the latter provided by Kyle Cunningham). The CBY169 strain was modified further by replacement of the PDR5 gene with a selectable marker (confers resistance to clonat) to generate strain KYA1 (MATα leu2-3,112 ura3-52 his4 trp1 rme1 dpl1Δ::TRP1 lcb3Δ::LEU2 lcb4Δ::kanMX lcb5Δ::kanMX pdr5Δ::natMX).
(§3) The plasmids pGAL-HsSPHK1, pGAL-HsSPHK2, pGAL-MmSphk1, pGAL-MmSphk1L277M, pGAL-MmSphk2, pGAL-HsCERK and pGAL-SK2_MOD used in this study were constructed by sub-cloning DNA encoding the indicated translational open reading frames into the pYES2-FLAG-URA expression vector (provided by Dr. Cungui Mao). The encoded proteins all have an amino terminal FLAG epitope tag ([…]) and their expression is under the control of the GAL1,10 promoter. Excepting human and mouse SphK2, the DNA sequences are synthetic (from GeneWiz LLC (South Plainfield, NJ)) and were optimized for expression in S. cerevisiae.

sphingosine kinase = target: sphingosine kinase; set-up: method as in PMID 21216217; details: cited from earlier work
human SphK1 [3] = target: T2, human SphK1 (Homo sapiens, UniProt Q9NYA1); assay: yeast growth rescue assay, strain CBY169 expressing human SphK1; format: cell-based; details: for rescue of growth in galactose media: strain CBY169 expressing human SphK1
T2 construct: constructed by sub-cloning DNA encoding the indicated translational open reading frames into the pYES2-FLAG-URA expression vector; expressed in transfected cells; host or cells: Saccharomyces cerevisiae CBY169 or KYA1, plasmid pGAL-HsSPHK1
T2 sequence (Q9NYA1 whole entry): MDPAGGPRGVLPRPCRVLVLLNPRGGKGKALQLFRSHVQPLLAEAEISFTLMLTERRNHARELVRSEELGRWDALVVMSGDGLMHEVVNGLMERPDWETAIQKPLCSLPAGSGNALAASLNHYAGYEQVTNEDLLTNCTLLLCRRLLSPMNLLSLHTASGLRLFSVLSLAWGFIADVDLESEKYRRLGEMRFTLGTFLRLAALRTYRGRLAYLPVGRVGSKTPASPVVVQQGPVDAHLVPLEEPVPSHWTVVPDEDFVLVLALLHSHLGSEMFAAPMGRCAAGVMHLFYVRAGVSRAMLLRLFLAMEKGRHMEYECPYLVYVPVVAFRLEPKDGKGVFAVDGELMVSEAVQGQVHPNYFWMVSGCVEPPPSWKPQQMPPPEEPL
Description: as §1
(§4) Yeast harboring plasmids were selected and maintained on synthetic complete media lacking uracil (SC-URA) with 2% glucose as the fermentable carbon source. After overnight growth at 30°C in this media, the cultures were diluted 1:100 into SC-URA media supplemented with 2% galactose and various concentrations of test inhibitor. After a further 24–48 hours incubation at 30°C, the extent of growth was assessed by measuring absorbance at 600 nm. […] Tubes were incubated in a rotating drum while plates were agitated using a plate mixer. A600 for 96-well plate cultures was determined using a Molecular Devices SpectraMax M5 plate reader. Test compounds were dissolved in DMSO at 40–50 mM and diluted into water containing 0.1% fatty acid free bovine serum albumin. In all cases, the DMSO concentration in the assay was less than 2% (v/v).

yeast strain CBY169 = assay: toxicity for yeast (growth of strains without lipid kinase expression); details: yeast strain CBY169
Description: as §4
The salient limitations of the yeast assay are those of any cell-based assay. Namely, the assay reports EC50 values rather than Km, Vmax or kcat values of inhibitors, test compounds must not be markedly cytotoxic at the concentrations tested and compounds must accumulate to some extent in the yeast. Cytotoxicity is readily discerned by testing compounds for an effect on growth of strains without lipid kinase expression.

human SphK1 [4] = target: T2, human SphK1; assay: yeast growth rescue assay, strain KYA1 (PDR5 deleted) expressing human SphK1; format: cell-based
Description: as §1, §4

human CerK = target: T3, human CerK (Homo sapiens, UniProt Q8TCT0); assay: yeast growth rescue assay, strain JS1256 (WT) expressing human CerK; format: cell-based; details: galactose media
T3 construct: constructed by sub-cloning DNA encoding the indicated translational open reading frames into the pYES2-FLAG-URA expression vector; expressed in transfected cells; host or cells: Saccharomyces cerevisiae JS1256, plasmid pGAL-HsCERK
T3 sequence (Q8TCT0 1-537): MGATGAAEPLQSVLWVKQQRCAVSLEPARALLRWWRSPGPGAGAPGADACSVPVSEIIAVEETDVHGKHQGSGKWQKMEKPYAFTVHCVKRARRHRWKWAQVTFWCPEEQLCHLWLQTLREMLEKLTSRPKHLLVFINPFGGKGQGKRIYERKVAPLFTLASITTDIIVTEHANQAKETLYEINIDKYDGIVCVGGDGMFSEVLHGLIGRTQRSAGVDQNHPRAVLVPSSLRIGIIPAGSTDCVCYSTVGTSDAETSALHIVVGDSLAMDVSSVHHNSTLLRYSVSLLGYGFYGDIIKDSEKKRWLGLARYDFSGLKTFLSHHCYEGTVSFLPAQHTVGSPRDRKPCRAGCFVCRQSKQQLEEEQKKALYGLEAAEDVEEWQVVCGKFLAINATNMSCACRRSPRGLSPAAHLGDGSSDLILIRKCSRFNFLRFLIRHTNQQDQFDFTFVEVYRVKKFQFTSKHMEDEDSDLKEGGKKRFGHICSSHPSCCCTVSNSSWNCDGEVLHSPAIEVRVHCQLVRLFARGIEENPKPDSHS
Description: as §2, §3

human SphK2 [5] = target: T1, human SphK2; assay: LCMS of phospho-LCBs in yeast expressing human SphK2; format: cell-based; details: yeast with pGAL-HsSPHK2, galactose media, 6 hours, inhibitor 300 nM
Description: Cell pellets (approximately 5 million cells) were mixed with 2 mL of a 3:1 methanol/chloroform mixture and transferred to a capped glass vial. To this suspension was added 10 μL of internal standard solution containing 1 μM d7S1P (deuterated sphingosine 1-phosphate) (Avanti Polar Lipids). The mixture was homogenized in a bath sonicator for 10 min and incubated at 48°C for 16 h. The mixture was then cooled to room temperature and mixed with 200 μL of 1 M KOH in methanol. The samples were again sonicated and incubated at 37°C for 2 h. After this time, the samples were neutralized through the addition of 20 μL of glacial acetic acid and transferred to 2 mL microcentrifuge tubes. […] Immediately before LCMS analysis, the material was dissolved in 300 μL of methanol, clarified by centrifuged at 12,000 x g for 12 min at 4°C, and analyzed by LCMS.
Analyses were performed using a triple quadrupole mass spectrometer (Sciex 4000 Q-Trap) coupled to a Shimadzu LC-20AD liquid chromatography system. […] Sphingolipids were detected using MRM (multiple reaction monitoring) methods as follows: d7S1P (387.4→271.3); dhS1P (382.4→266.4); dhSph (dihydroSphingosine) (302.5→60.0); phytoS1P (398.3→300.4) and phytosSph (318.4→282.3).
Yeast were cultured for 6 hours in the indicated media; inhibitors were present at 300 nM. Sphingolipids in cell pellets were analyzed by LCMS (see Methods for details).

[6] = target: T4, human SphK2 deletion mutant 11–1 (12–137 & 371–436 deleted) (Homo sapiens, UniProt Q9NRA0, D462G/DEL396-461/E171D/G163S/G648A); assay: yeast growth rescue, CBY169, human SphK2 deletion mutant 11–1; format: cell-based; details: mutant 11–1 (191 aa deleted)
T4 construct: a set of mutants lacking portions of the non-SphK1 overlapping amino acids of human SphK2; expressed in transfected cells; host or cells: Saccharomyces cerevisiae CBY169
T4 sequence (Q9NRA0 with tags, fused parts or gaps isoform Q9NRA0-2 G127S/E135D/DEL360-425/D426G/G612A): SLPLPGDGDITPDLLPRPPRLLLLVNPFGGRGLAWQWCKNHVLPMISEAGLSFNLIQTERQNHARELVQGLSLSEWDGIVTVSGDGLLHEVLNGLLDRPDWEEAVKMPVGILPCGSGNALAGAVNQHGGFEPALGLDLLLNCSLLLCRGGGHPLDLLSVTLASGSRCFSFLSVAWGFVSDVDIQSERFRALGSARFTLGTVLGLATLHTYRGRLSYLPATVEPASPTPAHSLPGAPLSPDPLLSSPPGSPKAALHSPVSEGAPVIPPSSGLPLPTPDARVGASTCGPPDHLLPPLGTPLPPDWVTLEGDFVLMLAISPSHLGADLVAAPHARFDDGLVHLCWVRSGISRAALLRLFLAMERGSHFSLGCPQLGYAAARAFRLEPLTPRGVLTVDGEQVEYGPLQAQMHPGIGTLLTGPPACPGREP
Description: While some of the nucleotide changes were translationally silent, the altered human SphK2 (termed ‘SK2_MOD’) DNA encoded five amino acid changes (Glu71Asp, Gly138Ser, Glu146Asp, Glu437Gly, Gly623Ala).

[7] = system: human and rat SphK1 and SphK2; set-up: method as in PMID 26243740; details: cited from earlier work
mouse SphK1 L277M = target: T5, mouse SphK1 L277M (Mus musculus, UniProt Q8CI15, L271M); assay: yeast growth rescue assay, mouse SphK1 L277M mutant versus wild type mouse SphK1; format: cell-based
T5 construct: constructed by sub-cloning DNA encoding the indicated translational open reading frames into the pYES2-FLAG-URA expression vector; expressed in transfected cells; host or cells: Saccharomyces cerevisiae (CBY169, printed 'CYA169', and KYA1), plasmid pGAL-MmSphk1L277M
T5 sequence (Q8CI15 1-388 isoform Q8CI15-2 L277M): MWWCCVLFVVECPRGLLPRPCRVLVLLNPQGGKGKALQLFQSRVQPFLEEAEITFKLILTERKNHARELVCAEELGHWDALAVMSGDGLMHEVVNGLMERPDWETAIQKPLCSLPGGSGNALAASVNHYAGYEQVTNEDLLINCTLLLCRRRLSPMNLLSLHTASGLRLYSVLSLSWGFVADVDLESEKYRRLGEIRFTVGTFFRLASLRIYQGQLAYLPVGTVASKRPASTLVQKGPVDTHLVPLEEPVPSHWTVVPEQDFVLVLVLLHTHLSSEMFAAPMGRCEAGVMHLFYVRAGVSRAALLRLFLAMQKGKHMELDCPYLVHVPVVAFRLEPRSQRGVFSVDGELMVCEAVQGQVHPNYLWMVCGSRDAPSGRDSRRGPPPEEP
Description: as §1

recombinant human SphK1 = target: recombinant human SphK1; set-up: method as in PMID 21216217; details: determined previously; cited from earlier work

## Oc1ccc(Nc2nc(-c3ccc(Cl)cc3)cs2)cc1 [SKI-II]
Human SphK2 [1]
  rescue of growth: failed to rescue growth
Human SphK2 [2]; strain KYA1 expressing human SphK2
  rescue of growth: failed to rescue growth
Sphingosine kinase
  Ki: 12000 to 30000 nM
Human SphK1 [3]
  rescue of growth in galactose media: failed to rescue growth
Yeast strain CBY169
  concentrations at which toxic for yeast: above 3 μM
Human SphK1 [4]
  rescue of growth: failed to rescue growth

## O=C(Nc1nc2ccc(NC(=O)C34CC5CC(CC(C5)C3)C4)cc2s1)c1ccccc1 [NVP-231]
Human CerK
  rescue of growth: growth was restored in a dose dependent fashion

## CCCCCCCCOc1ccc(-c2noc([C@@H]3CCCN3C(=N)N)n2)cc1C(F)(F)F [SLM6031434]
Human SphK2 [1]
  rescue of growth: rescued growth
Human SphK2 [2]; presence (CBY169) or absence (KYA1) of PDR5
  potency in CBY169 vs. KYA1 strains (PDR5p status): the same; also recorded: not different
Human SphK2 [5]
  phospho-LCB levels: decreased
[6]
  loss of potency: ~3 fold
Yeast strain CBY169
  concentrations at which toxic for yeast: 2000 to 3000 nM

## CCCCCOc1ccc2cc(-c3noc([C@@H]4[C@@H](O)CCN4C(=N)N)n3)ccc2c1 [SLC5111312]
[7]
  potency at SphK1 versus SphK2: equipotent
Mouse SphK1 L277M; mouse SphK1 L277M versus human SphK1, yeast growth rescue
  EC50 values for mutant mouse enzyme versus human enzyme: similar
Mouse SphK1 L277M; yeast growth rescue
  potency at mutant (L277M) versus wild type mouse SphK1: distinctly more potent
Human SphK2 [1]
  rescue of growth: rescued growth
Human SphK1 [3]
  rescue of growth in galactose media: restored full growth
Yeast strain CBY169
  concentrations at which toxic for yeast: 2000 to 3000 nM

## CCCCCCCc1ccc(NC(=O)[C@@H](N)CCO)cc1 [9ab]
Recombinant human SphK1
  Ki: 1400 to 1700 nM
Human SphK1 [3]
  EC50: 900 nM
